Laboratory results from ChEMBL document CHEMBL4765300, “Discovery of a chiral fluorinated azetidin-2-one as a tubulin polymerisation inhibitor with potent antitumour efficacy” (Eur J Med Chem, 2020).
In brackets after ≈: the same amount, converted by molar mass.

Assays:
[1] = Metabolic stability in human liver microsomes assessed as parent compound remaining at 10 uM measured after 5 mins in presence of NADPH by LC/MS/MS analysis; assay type: ADME, Microsome; conditions: read-out: Stabilty
[2] = Intrinsic clearance in human liver microsomes at 10 uM incubated for 60 mins in presence of NADPH by LC/MS/MS analysis; assay type: ADME, Microsome; conditions: read-out: CLH
[3] = Metabolic stability in human liver microsomes assessed as parent compound remaining at 10 uM measured after 30 mins in presence of NADPH by LC/MS/MS analysis; assay type: ADME, Microsome; conditions: read-out: Stabilty
[4] = Metabolic stability in human liver microsomes assessed as parent compound remaining at 10 uM measured after 20 mins in presence of NADPH by LC/MS/MS analysis; assay type: ADME, Microsome; conditions: read-out: Stabilty
[5] = Half life in human liver microsomes at 10 uM in presence of NADPH by LC/MS/MS analysis; assay type: ADME, Microsome
[6] = Metabolic stability in human liver microsomes assessed as parent compound remaining at 10 uM measured after 10 mins in presence of NADPH by LC/MS/MS analysis; assay type: ADME, Microsome; conditions: read-out: Stabilty
physchem = conditions: phosphate buffer, pH 7.4
[7] = Metabolic stability in human liver microsomes assessed as parent compound remaining at 10 uM measured after 60 mins in presence of NADPH by LC/MS/MS analysis; assay type: ADME, Microsome; conditions: read-out: Stabilty

SMILES | remaining at 5 min, 10 µM [1] | CLint scaled at 10 µM [2] | remaining at 0.5 h, 10 µM [3] | remaining at 20 min, 10 µM [4] | half-life at 10 µM [5] | remaining at 10 min, 10 µM [6] | solubility at 10 min (physchem) | remaining at 1 h, 10 µM [7]
COc1ccc([C@H]2[C@H](CF)C(=O)N2c2cc(OC)c(OC)c(OC)c2)cc1O | 85.6% | < 8.6 mL/min/kg | 90.9% | 88.4% | > 145 min | 91.6% | 41.1 µg/mL (≈ 105 µM) | 73%
COc1ccc(/C=C\c2cc(OC)c(OC)c(OC)c2)cc1O [COMBRETASTATIN A4] | 74.1% | 89.5 mL/min/kg | 17.5% | 37.2% | 13.9 min | 57.1% | 1.04 µg/mL (≈ 3.29 µM) | 5.2%
